# Where “and” joins values, the source holds several entries; their conditions need not be identical. Equal values may be shown once. Read-outs that look alike come from different tables or passages of the source.
# System: mtrC-lacZ expression
# Assay type: cell-based, Neisseria gonorrhoeae
# Conditions: for Miller units, single well / Miller units, Mean: upper 4-row block; for Miller units, single well: individual replicate; for Miller units, Mean: mean of 4 wells; for β-galactosidase activity, single replicate: ΔmtrR + mtrR R176E in trans; for β-galactosidase activity, individual replicate / β-galactosidase activity, Miller units (single replicate): mtrR WT in cis; for β-galactosidase activity, individual replicate: single replicate values, second (right) block
# [1] = 6.25 µM hormone, plate columns 1-6 (WT)
# [2] = 6.25 µM hormone, plate columns 7-12 (second strain, not WT)
# [3] = 12.5 µM hormone, plate columns 1-6 (WT)
# [4] = 12.5 µM hormone, plate columns 7-12 (second strain, not WT)
# [5] = 25 µM hormone, plate columns 7-12 (second strain, not WT)
# [6] = 50 µM hormone, plate columns 1-6 (WT)
# [7] = 50 µM hormone, plate columns 7-12 (second strain, not WT)
# [8] = mtrC-lacZ, ΔmtrR + mtrR D171A in trans, 6.25 µM hormone, single replicate
# [9] = mtrC-lacZ, ΔmtrR + mtrR D171A in trans, 12.5 µM hormone, single replicate
# [10] = mtrC-lacZ, ΔmtrR + mtrR D171A in trans, 25 µM hormone, single replicate
# [11] = mtrC-lacZ, ΔmtrR + mtrR D171A in trans, 50 µM hormone, single replicate
# [12] = mtrC-lacZ, ΔmtrR + mtrR WT in trans, 6.25 µM hormone, single replicate
# [13] = mtrC-lacZ, ΔmtrR + mtrR WT in trans, 12.5 µM hormone, single replicate
# [14] = mtrC-lacZ, ΔmtrR + mtrR WT in trans, 25 µM hormone, single replicate
# [15] = mtrC-lacZ, ΔmtrR + mtrR WT in trans, 50 µM hormone, single replicate
smiles,measurement,setting,value
"CC(=O)[C@H]1CC[C@H]2[C@@H]3CCC4=CC(=O)CC[C@]4(C)[C@H]3CC[C@]12C [Progesterone, progesterone]",Miller units,"6.25 µM hormone, plate columns 1-6 (WT), plate rows 1-4 (mtrC), single well",82 Miller units and 48 Miller units and 89 Miller units
same,"Miller units, single well",[1],82 Miller units and 48 Miller units and 89 Miller units and 47 Miller units
same,"Miller units, Mean",[1],66 Miller units
same,Miller units,"6.25 µM hormone, plate columns 7-12 (second strain not given), plate rows 1-4 (mtrC), single well",315 Miller units and 180 Miller units and 172 Miller units
same,"Miller units, single well",[2],315 Miller units and 180 Miller units and 172 Miller units and 146 Miller units
same,"Miller units, Mean",[2],203 Miller units
same,Miller units,"12.5 µM hormone, plate columns 1-6 (WT), plate rows 1-4 (mtrC), single well",112 Miller units and 91 Miller units and 70 Miller units
same,"Miller units, single well",[3],112 Miller units and 91 Miller units and 70 Miller units and 43 Miller units
same,"Miller units, Mean",[3],79 Miller units
same,Miller units,"12.5 µM hormone, plate columns 7-12 (second strain not given), plate rows 1-4 (mtrC), single well",228 Miller units and 168 Miller units and 142 Miller units
same,"Miller units, single well",[4],228 Miller units and 168 Miller units and 142 Miller units and 163 Miller units
same,"Miller units, Mean",[4],175 Miller units
same,Miller units,"25 µM hormone, plate columns 1-6 (WT), plate rows 1-4 (mtrC), single well",152 Miller units and 193 Miller units
same,"Miller units, single well","25 µM hormone, plate columns 1-6 (WT)",152 Miller units and 193 Miller units and 125 Miller units
same,Miller units,"25 µM hormone, plate columns 7-12 (second strain not given), plate rows 1-4 (mtrC), single well",253 Miller units and 170 Miller units and 160 Miller units
same,"Miller units, single well",[5],253 Miller units and 170 Miller units and 160 Miller units and 118 Miller units
same,"Miller units, Mean",[5],175 Miller units
same,Miller units,"50 µM hormone, plate columns 1-6 (WT), plate rows 1-4 (mtrC), single well",185 Miller units and 157 Miller units and 126 Miller units
same,"Miller units, single well",[6],185 Miller units and 157 Miller units and 126 Miller units and 75 Miller units
same,"Miller units, Mean",[6],136 Miller units
same,Miller units,"50 µM hormone, plate columns 7-12 (second strain not given), plate rows 1-4 (mtrC), single well",186 Miller units and 138 Miller units and 118 Miller units
same,"Miller units, single well",[7],186 Miller units and 138 Miller units and 118 Miller units and 96 Miller units
same,"Miller units, Mean",[7],134 Miller units
same,induction of mtrC expression,"complemented (MtrR+) strains, increasing hormone",could be induced
same,induction of mtrC expression,loss of MtrR or MtrR-D171A strain,abrogated
same,Miller units,[8],150 Miller units and 142 Miller units
same,β-galactosidase activity (Miller units),[8],147 Miller units and 144 Miller units and 150 Miller units and 142 Miller units
same,Miller units,[9],139 Miller units and 154 Miller units
same,β-galactosidase activity (Miller units),[9],146 Miller units and 130 Miller units and 139 Miller units and 154 Miller units
same,Miller units,[10],164 Miller units
same,β-galactosidase activity (Miller units),[10],161 Miller units and 184 Miller units and 164 Miller units
same,Miller units,[11],111 Miller units and 106 Miller units
same,β-galactosidase activity (Miller units),[11],114 Miller units and 91 Miller units and 111 Miller units and 106 Miller units
same,Miller units,[12],71 Miller units and 75 Miller units and 104 Miller units and 85 Miller units
same,β-galactosidase activity (Miller units),[12],71 Miller units and 75 Miller units and 104 Miller units and 85 Miller units
same,Miller units,[13],90 Miller units and 80 Miller units and 98 Miller units and 88 Miller units
same,β-galactosidase activity (Miller units),[13],90 Miller units and 80 Miller units and 98 Miller units and 88 Miller units
same,Miller units,[14],120 Miller units and 101 Miller units and 124 Miller units and 107 Miller units
same,β-galactosidase activity (Miller units),[14],120 Miller units and 101 Miller units and 124 Miller units and 107 Miller units
same,Miller units,[15],125 Miller units and 123 Miller units and 130 Miller units and 139 Miller units
same,β-galactosidase activity (Miller units),[15],125 Miller units and 123 Miller units and 130 Miller units and 139 Miller units
same,β-galactosidase activity (Miller units),"mtrC-lacZ, ΔmtrR strain, 6.25 µM hormone, single replicate",239 Miller units
same,β-galactosidase activity (Miller units),"mtrC-lacZ, ΔmtrR strain, 12.5 µM hormone, single replicate",205 Miller units
same,β-galactosidase activity (Miller units),"mtrC-lacZ, ΔmtrR strain, 25 µM hormone, single replicate",223 Miller units
same,β-galactosidase activity (Miller units),"mtrC-lacZ, ΔmtrR strain, 50 µM hormone, single replicate",197 Miller units
same,"β-galactosidase activity, single replicate","mtrCDE block (c1-c37), 6.25 µM",221 Miller units and 281 Miller units and 181 Miller units and 184 Miller units
same,"β-galactosidase activity, single replicate","mtrCDE block (c1-c37), 12.5 µM",215 Miller units and 235 Miller units and 172 Miller units and 208 Miller units
same,"β-galactosidase activity, single replicate","mtrCDE block (c1-c37), 25 µM",255 Miller units and 287 Miller units and 177 Miller units and 185 Miller units
same,"β-galactosidase activity, single replicate","mtrCDE block (c1-c37), 50 µM",296 Miller units and 219 Miller units and 227 Miller units and 184 Miller units
same,"β-galactosidase activity, individual replicate",6.25 µM hormone,41 Miller units and 35 Miller units
same,"β-galactosidase activity, Miller units (single replicate)","6.25 µM, first data set (c15-c36)",115 Miller units and 113 Miller units and 101 Miller units and 103 Miller units
same,"β-galactosidase activity, Miller units (single replicate)","6.25 µM, second data set (c53-c74)",37 Miller units and 29 Miller units
same,"β-galactosidase activity, individual replicate",12.5 µM hormone,61 Miller units and 54 Miller units
same,"β-galactosidase activity, Miller units (single replicate)","12.5 µM, first data set (c15-c36)",153 Miller units and 144 Miller units and 132 Miller units
same,"β-galactosidase activity, Miller units (single replicate)","12.5 µM, second data set (c53-c74)",41 Miller units and 34 Miller units
same,"β-galactosidase activity, individual replicate",25 µM hormone,90 Miller units and 65 Miller units
same,"β-galactosidase activity, Miller units (single replicate)","25 µM, first data set (c15-c36)",256 Miller units and 186 Miller units and 175 Miller units and 160 Miller units
same,"β-galactosidase activity, Miller units (single replicate)","25 µM, second data set (c53-c74)",66 Miller units and 58 Miller units
same,"β-galactosidase activity, individual replicate",50 µM hormone,111 Miller units and 114 Miller units
same,"β-galactosidase activity, Miller units (single replicate)","50 µM, first data set (c15-c36)",228 Miller units and 242 Miller units and 200 Miller units and 220 Miller units
same,"β-galactosidase activity, Miller units (single replicate)","50 µM, second data set (c53-c74)",91 Miller units and 73 Miller units
same,"β-galactosidase activity, single replicate","second block of sheet (c39-c76), 6.25 µM",130 Miller units and 89 Miller units and 76 Miller units and 71 Miller units
same,"β-galactosidase activity, single replicate","second block of sheet (c39-c76), 12.5 µM",125 Miller units and 104 Miller units and 71 Miller units and 67 Miller units
same,"β-galactosidase activity, single replicate","second block of sheet (c39-c76), 25 µM",151 Miller units and 130 Miller units and 84 Miller units and 80 Miller units
same,"β-galactosidase activity, single replicate","second block of sheet (c39-c76), 50 µM",130 Miller units and 108 Miller units and 88 Miller units and 66 Miller units

# Source: paper PMC10850145, “Hormonal steroids induce multidrug resistance and stress response genes in Neisseria gonorrhoeae by binding to MtrR” (Nature Communications, 2024)
